Assay results from patent publication US20240158446A1, “CYCLIC COMPOUND HAVING SELECTIVE INHIBITORY ACTION ON KRAS OVER HRAS AND NRAS” (CHUGAI SEIYAKU KABUSHIKI KAISHA, priority 2021, published 2024).
Where two headings read alike, the source gives them in different places. Where a SMILES comes first, the peptide text is derived from it. Bridges are numbered along the chain shown (N, C = ends). [ ]: non-standard residue; d: D form. The star is where a group is joined. hPhe(3-Cl-4-CF3) = N[C@@H](CCc1ccc(C(F)(F)F)c(Cl)c1)C(=O)O; NPrPhe(4-CF3) = CCCN[C@@H](Cc1ccc(C(F)(F)F)cc1)C(=O)O; NMeGly(cPent) = CN[C@H](C(=O)O)C1CCCC1; NMeD = CN[C@@H](CC(=O)O)C(=O)O; NMeL = CN[C@@H](CC(C)C)C(=O)O; Morpholide = C1CN(*)CCO1; Ac5c = NC1(C(=O)O)CCCC1; Aze = O=C(O)[C@@H]1CCN1; Sar = CNCC(=O)O

What was measured:
[1] = system: human lung cancer strain NCI-H441;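 also: cell proliferation inhibition after four days measured by CellTiter-Glo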
[2] = target: GDP-bound KRAS wild-type protein (Homo sapiens, UniProt P01116); assay: Binding to KRAS by surface plasmon resonance (SPR), Single Cycle Kinetics; conditions: GDP-bound KRAS wild-type protein, read-out: KRAS KD
[3] = target: GDP-bound HRAS wild-type protein (Homo sapiens, UniProt P01112); assay: Binding to HRAS by surface plasmon resonance (SPR), Single Cycle Kinetics; conditions: for HRAS/KRAS (ratio of KD value for HRAS to KD value for KRAS): SPR, GDP-bound HRAS wild-type protein vs GDP-bound KRAS wild-type protein; for HRAS/KRAS (ratio of KD value with respect to GDP-bound HRAS wild-type protein to KD value with respect to KRAS): SPR KD ratio HRAS/KRAS, class symbols
[4] = target: GDP-bound NRAS wild-type protein (Homo sapiens, UniProt P01111); assay: Binding to NRAS by surface plasmon resonance (SPR), Single Cycle Kinetics; conditions: for NRAS/KRAS (ratio of KD value for NRAS to KD value for KRAS): SPR, GDP-bound NRAS wild-type protein vs GDP-bound KRAS wild-type protein; for NRAS/KRAS (ratio of KD value with respect to GDP-bound NRAS wild-type protein to KD value with respect to KRAS): SPR KD ratio NRAS/KRAS, class symbols
[5] = SPR Single Cycle Kinetics, 1:1 binding model
[6] = SPR, Single Cycle Kinetics, 1:1 binding model

Chain of GDP-bound KRAS wild-type protein (P01116 whole entry): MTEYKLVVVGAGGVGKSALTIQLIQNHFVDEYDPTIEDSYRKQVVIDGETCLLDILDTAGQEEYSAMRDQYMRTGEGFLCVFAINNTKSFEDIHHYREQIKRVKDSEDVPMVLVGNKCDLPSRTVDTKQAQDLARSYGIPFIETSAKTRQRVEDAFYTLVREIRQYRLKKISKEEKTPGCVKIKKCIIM
Chain of GDP-bound HRAS wild-type protein (P01112 whole entry): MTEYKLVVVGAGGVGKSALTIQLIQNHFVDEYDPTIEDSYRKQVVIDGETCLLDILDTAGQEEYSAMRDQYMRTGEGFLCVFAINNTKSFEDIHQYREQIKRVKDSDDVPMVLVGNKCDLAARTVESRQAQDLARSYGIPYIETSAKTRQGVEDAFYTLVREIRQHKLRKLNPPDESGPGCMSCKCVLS
Chain of GDP-bound NRAS wild-type protein (P01111 whole entry): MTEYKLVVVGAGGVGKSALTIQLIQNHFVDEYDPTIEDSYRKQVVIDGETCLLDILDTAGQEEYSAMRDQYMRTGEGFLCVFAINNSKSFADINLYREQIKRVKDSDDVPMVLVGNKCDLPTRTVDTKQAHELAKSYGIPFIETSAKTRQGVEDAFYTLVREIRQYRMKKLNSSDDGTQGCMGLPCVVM

Row | Compound | IC50 [1] | Kd ([2]; SPR, Single Cycle Kinetics) | HRAS/KRAS (ratio of KD value for HRAS to KD value for KRAS) [3] | NRAS/KRAS (ratio of KD value for NRAS to KD value for KRAS) [4] | Kd [2, 5] | HRAS/KRAS (ratio of KD value with respect to GDP-bound HRAS wild-type protein to KD value with respect to KRAS) [3] | NRAS/KRAS (ratio of KD value with respect to GDP-bound NRAS wild-type protein to KD value with respect to KRAS) [4] | Kd [2, 6] | HRAS/KRAS (ratio of KD value for HRAS to KD value for KRAS) ([3]; KD ratio class) | NRAS/KRAS (ratio of KD value for NRAS to KD value for KRAS) ([4]; KD ratio class)
1 | CCO[C@@H]1C[C@H]2C(=O)NC3(CC(C)(C)C3)C(=O)N(C)[C@@H](C(CC)CC)C(=O)N(C)[C@H](C(=O)N(C)C)CC(=O)N(C)[C@@H](COC)C(=O)N[C@@H]([C@@H](C)CC)C(=O)N(C)CC(=O)N(C)[C@H]3C/C=C\CCN(C3=O)[C@@H](CC3CCCCC3)C(=O)N(C)CC(=O)N[C@@H](CCc3cc(F)c(C(F)(F)F)c(F)c3)C(=O)N2C1 [PP2456] | 18.8 nM | 1.1 nM | A (a compound having 10 or more and less than 20 is denoted as A) | A (a compound having 10 or more and less than 20 is denoted as A) | – | – | – | – | – | –
2 | CCO[C@@H]1C[C@H]2C(=O)NC3(CCC3)C(=O)N(C)[C@@H](C3CCCC3)C(=O)N(C)[C@H](C(=O)N(C)C)CC(=O)N(C)[C@@H](Cc3cccc(C#N)c3)C(=O)N[C@@H]([C@@H](C)CC)C(=O)N(C)CC(=O)N(C)[C@H]3CCCCCN(C3=O)[C@@H](Cc3ccc(C(F)(F)F)cc3)C(=O)N(C)CC(=O)N[C@@H](CCc3cc(F)c(C(F)(F)F)c(F)c3)C(=O)N2C1 [PP1172] | 48.3 nM | 0.17 nM | B (a compound having 3 or more and less than 10 is denoted as B) | B (a compound having 3 or more and less than 10 is denoted as B) | – | – | – | – | – | –
3 | CCO[C@@H]1C[C@H]2C(=O)NC3(CC(C)(C)C3)C(=O)N(C)[C@@H](C3CCCCC3)C(=O)N(C)[C@H](C(=O)N(C)C)CC(=O)N(C)[C@@H](COC)C(=O)N[C@@H]([C@@H](C)CC)C(=O)N(C)CC(=O)N(C)[C@H]3C/C=C\CCN(C3=O)[C@@H](Cc3ccc(C)cc3)C(=O)N(C)CC(=O)N[C@@H](CCc3cc(F)c(C(F)(F)F)c(F)c3)C(=O)N2C1 [PP2659] | 20.6 nM | – | – | – | 0.19 nM | A (a compound having 10 or more and less than 20 is denoted as A) | A (a compound having 10 or more and less than 20 is denoted as A) | – | – | –
4 | CC[C@H](C)[C@@H]1NC(=O)[C@H](CC)N(C)C(=O)C[C@@H](C(=O)N2CCOCC2)N(C)C(=O)[C@H](C2CCCC2)N(C)C(=O)C2(CCCC2)NC(=O)[C@@H]2CCCN2C(=O)[C@H](CCc2cc(F)c(C(F)(F)F)c(F)c2)NC(=O)CN(C)C(=O)[C@H](Cc2ccc(C(F)(F)F)cc2)N2C[C@H](C)[C@H](C)C[C@@H](C2=O)N(C)C(=O)CN(C)C1=O [PP1365] | 4.2 nM | – | – | – | – | – | – | 0.13 nM | B (a compound having 3 or more and less than 10 is denoted as B) | A (a compound having 10 or more and less than 20 is denoted as A)
5 | CCO[C@@H]1C[C@H]2C(=O)NC3(CCC3)C(=O)N(C)[C@@H](C(CC)CC)C(=O)N(C)[C@H](C(=O)N(C)C)CC(=O)N(C)[C@@H](CC(C)C)C(=O)N[C@@H]([C@@H](C)CC)C(=O)N(C)CC(=O)N(C)[C@H]3C/C=C\CCN(C3=O)[C@@H](CC3CCC(F)(F)CC3)C(=O)N(C)CC(=O)N[C@@H](CCc3cc(F)c(C(F)(F)F)c(F)c3)C(=O)N2C1 [PP1433] | 44.4 nM | – | – | – | – | – | – | 0.46 nM | A (a compound having 10 or more and less than 20 is denoted as A) | AA (a compound having 20 or more is denoted as AA)
6 | CCC(CC)[C@H]1C(=O)N(C)[C@H](C(=O)N(C)C)CC(=O)N(C)[C@@H](COC)C(=O)N[C@@H]([C@@H](C)CC)C(=O)N2CCC[C@H]2C(=O)N(C)[C@H]2C/C=C\CCN(C2=O)[C@@H](Cc2ccc(C(F)(F)F)cc2)C(=O)N(C)CC(=O)N[C@@H](CCc2ccc(Cl)c(Cl)c2)C(=O)N2C[C@H](OC(C)C)C[C@H]2C(=O)NC2(CC(C)(C)C2)C(=O)N1C [PP2639] | 81.6 nM | – | – | – | 1.1 nM | A (a compound having 10 or more and less than 20 is denoted as A) | AA (a compound having 20 or more is denoted as AA) | – | – | –
7 | CCO[C@@H]1C[C@H]2C(=O)NC3(CCC3)C(=O)N(C)[C@@H](C(CC)CC)C(=O)N(C)[C@H](C(=O)N3CCCC3)CC(=O)N(C)[C@@H](COC)C(=O)N[C@@H]([C@@H](C)CC)C(=O)N(C)CC(=O)N(C)[C@H]3C/C=C\CCN(C3=O)[C@@H](CC3CCC(F)(F)CC3)C(=O)N(C)CC(=O)N[C@@H](CCc3cc(F)c(C(F)(F)F)c(F)c3)C(=O)N2C1 [PP1440] | 69.7 nM | – | – | – | – | – | – | 0.35 nM | A (a compound having 10 or more and less than 20 is denoted as A) | AA (a compound having 20 or more is denoted as AA)
8 | CCC[C@H]1C(=O)N[C@@H]([C@@H](C)CC)C(=O)N(C2CC2)CC(=O)N(C)[C@H]2C/C=C\CCN(C2=O)[C@@H](CC2CCC(F)(F)CC2)C(=O)N(C)CC(=O)N[C@@H](CCc2cc(F)c(C(F)(F)F)c(F)c2)C(=O)N2C[C@H](OCC)C[C@H]2C(=O)NC2(CC(C)(C)C2)C(=O)N(C)[C@@H](C2CCCC2)C(=O)N(C)[C@H](C(=O)N(C)C)CC(=O)N1C [PP2566] | 17.6 nM | – | – | – | 0.57 nM | B (a compound having 3 or more and less than 10 is denoted as B) | A (a compound having 10 or more and less than 20 is denoted as A) | – | – | –
9 | CCC[C@H]1C(=O)N[C@@H]([C@@H](C)CC)C(=O)N2CCC[C@H]2C(=O)N(C)[C@H]2C/C=C\CCN(C2=O)[C@@H](Cc2ccc(C)cc2)C(=O)N(C)CC(=O)N[C@@H](CCc2ccc(Cl)c(Cl)c2)C(=O)N2C[C@H](OC(C)C)C[C@H]2C(=O)NC2(CC(C)(C)C2)C(=O)N(C)[C@@H](C(CC)CC)C(=O)N(C)[C@H](C(=O)N(C)C)CC(=O)N1C [PP2641] | 98.6 nM | – | – | – | 2 nM | A (a compound having 10 or more and less than 20 is denoted as A) | AA (a compound having 20 or more is denoted as AA) | – | – | –
10 | CCC[C@H]1C(=O)N[C@@H]([C@@H](C)CC)C(=O)N(C)CC(=O)N(C)[C@H]2C/C=C\CCN(C2=O)[C@@H](Cc2ccc(C(F)(F)F)cc2)C(=O)N(C)CC(=O)N[C@@H](CCc2ccc(C(F)(F)F)c(OC)c2)C(=O)N2C[C@H](OCC)C[C@H]2C(=O)NC2(CCC2)C(=O)N(C)[C@@H](C2CCCC2)C(=O)N(C)[C@H](C(=O)N(C)C)CC(=O)N1C [PP1244, (2S,8S,12R,14S,20S,23S,27S,30S,36S,38Z)-20-cyclopentyl-12-ethoxy-8-[2-[3-methoxy-4-(trifluoromethyl)phenyl]ethyl]-N,N,4,19,22,26,32,35-octamethyl-30-[(1S)-1-methylpropyl]-3,6,9,15,18,21,25,28,31,34,42-undecaoxo-27-propyl-2-[[4-(trifluoromethyl)phenyl]methyl]spiro[1,4,7,10,16,19,22,26,29,32,35-undecazatricyclo[34.5.1.0^10,14]dotetracont-38-ene-17,1′-cyclobutane]-23-carboxamide] | 8.9 nM | – | – | – | – | – | – | 0.061 nM | B (a compound having 3 or more and less than 10 is denoted as B) | A (a compound having 10 or more and less than 20 is denoted as A)
11 | CCOC[C@H]1C(=O)N[C@@H]([C@@H](C)CC)C(=O)N2CCC[C@H]2C(=O)N(C)[C@H]2C/C=C\CCN(C2=O)[C@@H](Cc2ccc(C(F)(F)F)cc2)C(=O)N(C)CC(=O)N[C@@H](CCc2ccc(C(F)(F)F)c(OC)c2)C(=O)N2C[C@@H](C)C[C@H]2C(=O)N(C)C2(CCC2)C(=O)N(C)[C@@H](C2CCCC2)C(=O)N(C)[C@H](C(=O)N(C)C)CC(=O)N1C [PP2363] | 7.5 nM | 0.062 nM | B (a compound having 3 or more and less than 10 is denoted as B) | A (a compound having 10 or more and less than 20 is denoted as A) | – | – | – | – | – | –
12 | CCCN1C(=O)[C@@H]2CCN2C(=O)[C@H](C)NC(=O)[C@H]([C@@H](C)CC)NC(=O)[C@H](CC(C)C)N(C)C(=O)C[C@@H](C(=O)N2CCOCC2)N(C)C(=O)[C@H](C2CCCC2)N(C)C(=O)C2(CCCC2)NC(=O)[C@@H]2CCCN2C(=O)[C@H](CCc2ccc(C(F)(F)F)c(Cl)c2)NC(=O)CN(C)C(=O)[C@@H]1Cc1ccc(C(F)(F)F)cc1 [PP0078] ([NMeL]IA[Aze][NPrPhe(4-CF3)][Sar][hPhe(3-Cl-4-CF3)]P[Ac5c][NMeGly(cPent)][NMeD]-Morpholide; lactam N-11) | 4.8 nM | – | B (a compound having 3 or more and less than 10 is denoted as B) | C (A compound having a KD ratio of 0.1 or more and less than 3 is denoted as C) | 0.19 nM | – | – | – | – | –
